Assay results reported in ChEMBL document CHEMBL3885861, “Open TG-GATES”.

Species: Rattus norvegicus
Experiment: Open TG-GATES - Regimen: Daily Repeat
Type: toxicity, organism-based, Sprague-Dawley
Set-up: regimen Daily Repeat, gender Male, age 6 weeks
Details: in vivo, po, 30 mg/kg, […], route gavage, dose level High; for KIDNEY_L / KIDNEY_R / KIDNEY_TOTAL: tissue Kidney; for LIVER: tissue Liver; for A/G / ALP / ALT / AST / BUN / CRE / Ca / Cl / DBIL / GLC / IP / K / LDH / Na / PL / RALB / TBIL / TC / TG / TP / gamma-GTP: tissue Plasma

Compound: Nc1c2c(nc3ccccc13)CCCC2 [TACRINE]
- Lym (tissue Blood, time 28 day): 74%
- MCH (tissue Blood, time 28 day): 20.1 pg
- MCHC (tissue Blood, time 28 day): 36.4%
- MCV (tissue Blood, time 28 day): 55.1 fL
- Mono (tissue Blood, time 28 day): 2%
- Neu (tissue Blood, time 28 day): 22%
- PT (tissue Blood, time 28 day): 16.5 s
- Plat (tissue Blood, time 28 day): 114.6 x10_4/uL
- RBC (tissue Blood, time 28 day): 748 x10_4/ul
- Ret (tissue Blood, time 28 day): 3.3%
- WBC (tissue Blood, time 28 day): 119.9 x10_2/uL
- KIDNEY_L (time 7 day): 1 g
- KIDNEY_R (time 7 day): 1 g
- KIDNEY_TOTAL (time 7 day): 1.9 g
- KIDNEY_L (time 14 day): 1.1 g
- KIDNEY_R (time 14 day): 1.1 g
- KIDNEY_TOTAL (time 14 day): 2.2 g
- KIDNEY_L (time 28 day): 1.2 g
- KIDNEY_R (time 28 day): 1.2 g
- KIDNEY_TOTAL (time 28 day): 2.4 g
- LIVER (time 7 day): 8.9 g
- LIVER (time 14 day): 9.8 g
- LIVER (time 28 day): 11.2 g
- A/G (time 7 day): 1.2
- ALP (time 7 day): 923 IU/L
- ALT (time 7 day): 41 IU/L
- AST (time 7 day): 79.7 IU/L
- BUN (time 7 day): 15 mg/dL
- CRE (time 7 day): 0.2 mg/dL
- Ca (time 7 day): 10.9 mg/dL
- Cl (time 7 day): 105.7 meq/L
- DBIL (time 7 day): 0.0033 mg/dL
- GLC (time 7 day): 176.3 mg/dL
- IP (time 7 day): 9.6 mg/dL
- K (time 7 day): 4.2 meq/L
- LDH (time 7 day): 268.3 IU/L
- Na (time 7 day): 141 meq/L
- PL (time 7 day): 140.7 mg/dL
- RALB (time 7 day): 3 g/dL
- TBIL (time 7 day): 0.0167 mg/dL
- TC (time 7 day): 70.7 mg/dL
- TG (time 7 day): 95.7 mg/dL
- TP (time 7 day): 5.6 g/dL
- gamma-GTP (time 7 day): 1 IU/L
- A/G (time 14 day): 1.2
- ALP (time 14 day): 1172 IU/L
- ALT (time 14 day): 39 IU/L
- AST (time 14 day): 74.7 IU/L
- BUN (time 14 day): 19.7 mg/dL
- CRE (time 14 day): 0.2 mg/dL
- Ca (time 14 day): 10.9 mg/dL
- Cl (time 14 day): 106.3 meq/L
- DBIL (time 14 day): 0 mg/dL
- GLC (time 14 day): 174 mg/dL
- IP (time 14 day): 8.1 mg/dL
- K (time 14 day): 4.6 meq/L
- LDH (time 14 day): 212.7 IU/L
- Na (time 14 day): 141 meq/L
- PL (time 14 day): 143 mg/dL
- RALB (time 14 day): 3 g/dL
- TBIL (time 14 day): 0.02 mg/dL
- TC (time 14 day): 69.3 mg/dL
- TG (time 14 day): 104 mg/dL
- TP (time 14 day): 5.5 g/dL
- gamma-GTP (time 14 day): 1 IU/L
- A/G (time 28 day): 1
- ALP (time 28 day): 1280 IU/L
- ALT (time 28 day): 35 IU/L
- AST (time 28 day): 81 IU/L
- BUN (time 28 day): 17 mg/dL
- CRE (time 28 day): 0.2 mg/dL
- Ca (time 28 day): 10.4 mg/dL
- Cl (time 28 day): 106 meq/L
- DBIL (time 28 day): 0 mg/dL
- GLC (time 28 day): 160 mg/dL
- IP (time 28 day): 8.2 mg/dL
- K (time 28 day): 4.2 meq/L
- LDH (time 28 day): 96 IU/L
- Na (time 28 day): 143 meq/L
- PL (time 28 day): 128 mg/dL
- RALB (time 28 day): 2.9 g/dL
- TBIL (time 28 day): 0.03 mg/dL
- TC (time 28 day): 71 mg/dL
- TG (time 28 day): 64 mg/dL
- TP (time 28 day): 5.7 g/dL
- gamma-GTP (time 28 day): 1 IU/L
